# Test results from article PMC3395614, “Functional Evolution of Mammalian Odorant Receptors” (PLoS Genetics, 2012).
# Experiments:
# [1] = target: T1, OR2J2 (human) (Homo sapiens, UniProt O76002); assay: cAMP-mediated CRE-luciferase reporter dose-response, Hana3A cells; format: cell-based; conditions: agonist; human RTP1S and M3 receptor co-expressed; odor 10 nM to 10 mM
# T1 construct: full-length ORF from genomic DNA, N-terminal Rho-tag, Hana3A cells with human RTP1S
# T1 sequence (O76002 1-312): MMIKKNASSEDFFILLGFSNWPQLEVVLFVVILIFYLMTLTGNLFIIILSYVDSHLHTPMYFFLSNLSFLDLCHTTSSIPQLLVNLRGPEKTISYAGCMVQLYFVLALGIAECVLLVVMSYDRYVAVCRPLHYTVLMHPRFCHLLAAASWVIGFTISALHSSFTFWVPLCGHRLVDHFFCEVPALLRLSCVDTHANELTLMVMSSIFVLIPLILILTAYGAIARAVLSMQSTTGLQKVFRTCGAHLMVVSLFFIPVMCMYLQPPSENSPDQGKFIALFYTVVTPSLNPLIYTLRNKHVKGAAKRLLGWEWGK
# [2] = target: T1, OR2J2 (human); assay: cell-based; design: species or system Hana3A; cAMP-mediated luciferase reporter dose-response of odorant receptor orthologs and paralogs
# Source text: (§1) Figure 6 Dose-response curves of OR orthologs and paralogs to a given ligand. (A) OR5K1 orthologs and 5 K subfamily to eugenol methyl ether. (B) OR8D1 orthologs and 8D subfamily members to 4,5-dimethyl-3-hydroxy-2,5-dihydrofuran-2-one. […] X-axis is the concentration of a given odor in Log Molar. Y-axis is normalized response (n = 3, ± S.E.M.). Human (h), chimpanzee (c) and rhesus macaque (m), mouse receptors (m+number); para indicates a receptor that is a paralog to the human reference OR. Vector control is Rho-pCI. See Figure S11 for additional dose-response data from orthologs and subfamily members. Supplementary file pgen.1002821.s018.pdf: Table S5 Comparison of dose-response curves from orthologs and paralogs. LogEC50 (M), Span (dynamic-range) for each OR is given. […] F-ratio and p-values from extra sum-of-squares test. (PDF) Click here for additional data file.  Figure 2 Response of OR orthologs to 42 chemically diverse odors. (A) Tuning curves of human, chimp and macaque OR2W1 orthologs tested against 42 odors using a cAMP-mediated luciferase assay. Odorants are ordered along the x-axis according to the response elicited from the human OR2W1, with the best ligands closer to the center. Y-axis represents the luciferase response to an odor at 100 µM (n = 3, ± S.E.). Negative values on the y-axis indicate the odor elicited an inhibitory response on OR signaling. See Figure S6 for additional tuning curves. (B) Response of chimp and macaque OR2W1 orthologs (variant responses) plotted against the human OR2W1 response using the data from (A). X-axis and y-axis are response in luciferase assay at 100 µM (n = 3, ± S.E.). The black line represents the unit-slope line. Odor abbreviations in Table S3.
# [3] = target: T2, h2J3 (Homo sapiens, UniProt O76001); assay: cell-based; design: species or system Hana3A; cAMP-mediated luciferase reporter dose-response of odorant receptor orthologs and paralogs
# T2 construct: gene OR2J3
# Source text: as §1
# [4] = target: T3, h2J1 (Homo sapiens, UniProt Q9GZK6); assay: cell-based; design: species or system Hana3A; cAMP-mediated luciferase reporter dose-response of odorant receptor orthologs and paralogs
# T3 construct: gene OR2J1
# Source text: as §1
# [5] = target: T4, chimp OR8D1 (Pan troglodytes, UniProt A0A2J8N1S1); assay: cAMP-mediated CRE-luciferase reporter dose-response, Hana3A cells; format: cell-based; conditions: agonist; human RTP1S and M3 receptor co-expressed; odor 10 nM to 10 mM
# T4 construct: gene LOC466828; full-length ORF from genomic DNA, N-terminal Rho-tag, Hana3A cells with human RTP1S
# [6] = target: T4, chimp OR8D1; assay: cell-based; design: species or system Hana3A; cAMP-mediated luciferase reporter dose-response of odorant receptor orthologs and paralogs
# Source text: as §1
# [7] = target: T5, chimp OR8K3 (Pan troglodytes, UniProt A0A2J8LC19); assay: cAMP-mediated CRE-luciferase reporter dose-response, Hana3A cells; format: cell-based; conditions: agonist; human RTP1S and M3 receptor co-expressed; odor 10 nM to 10 mM
# T5 construct: gene LOC466557; full-length ORF from genomic DNA, N-terminal Rho-tag, Hana3A cells with human RTP1S
# [8] = target: T5, chimp OR8K3; assay: cell-based; design: species or system Hana3A; cAMP-mediated luciferase reporter dose-response of odorant receptor orthologs and paralogs
# Source text: as §1
# [9] = target: human OR51L1 (Homo sapiens, UniProt Q8NGJ5); assay: cell-based; design: species or system Hana3A; cAMP-mediated luciferase reporter assay of odorant receptor activation, dose-response, ortholog pairs; conditions: ortholog set
# Description: (§2) Figure 2 Response of OR orthologs to 42 chemically diverse odors. (A) Tuning curves of human, chimp and macaque OR2W1 orthologs tested against 42 odors using a cAMP-mediated luciferase assay. Odorants are ordered along the x-axis according to the response elicited from the human OR2W1, with the best ligands closer to the center. Y-axis represents the luciferase response to an odor at 100 µM (n = 3, ± S.E.). Negative values on the y-axis indicate the odor elicited an inhibitory response on OR signaling. See Figure S6 for additional tuning curves. (B) Response of chimp and macaque OR2W1 orthologs (variant responses) plotted against the human OR2W1 response using the data from (A). X-axis and y-axis are response in luciferase assay at 100 µM (n = 3, ± S.E.). The black line represents the unit-slope line. Odor abbreviations in Table S3. We next wanted to examine the functional changes in sensitivity of orthologs to individual ligands by testing each ortholog across a range of concentrations. We selected a single odor for a given OR to construct a representative dose-response curve, fit the data to a sigmoid curve, and then compared the response of the human allele against the primate orthologs and the mouse allele with the rat ortholog using an extra sum of squares test. […]
# [10] = target: T6, h51E1 (Homo sapiens, UniProt Q8TCB6); assay: cell-based; design: species or system Hana3A; cAMP-mediated luciferase reporter dose-response of odorant receptor orthologs and paralogs
# T6 construct: gene OR51E1
# Source text: as §1
# [11] = target: T7, mouse MOR256-17 (Mus musculus, UniProt P23275); assay: cell-based; design: species or system Hana3A; cAMP-mediated luciferase reporter assay of odorant receptor activation, dose-response, ortholog pairs; conditions: ortholog set
# T7 construct: gene Or2c1
# Description: as §2
# [12] = target: T8, h2B11 (Homo sapiens, UniProt Q5JQS5); assay: cell-based; design: species or system Hana3A; cAMP-mediated luciferase reporter dose-response of odorant receptor orthologs and paralogs
# T8 construct: gene OR2B11
# Source text: as §1
# [13] = target: T9, h5P3 (Homo sapiens, UniProt Q8WZ94); assay: cell-based; design: species or system Hana3A; cAMP-mediated luciferase reporter dose-response of odorant receptor orthologs and paralogs
# T9 construct: gene OR5P3
# Source text: as §1
# [14] = target: T10, h56A4 (Homo sapiens, UniProt Q8NGH8); assay: cell-based; design: species or system Hana3A; cAMP-mediated luciferase reporter dose-response of odorant receptor orthologs and paralogs
# T10 construct: gene OR56A4
# Source text: as §1
# [15] = target: T11, h56A1 (Homo sapiens, UniProt Q8NGH5); assay: cell-based; design: species or system Hana3A; cAMP-mediated luciferase reporter dose-response of odorant receptor orthologs and paralogs
# T11 construct: gene OR56A1
# Source text: as §1
# [16] = target: T12, h56A5 (Homo sapiens, UniProt P0C7T3); assay: cell-based; design: species or system Hana3A; cAMP-mediated luciferase reporter dose-response of odorant receptor orthologs and paralogs
# T12 construct: gene OR56A5
# Source text: as §1
# [17] = target: T13, h10G3 (Homo sapiens, UniProt Q8NGC4); assay: cell-based; design: species or system Hana3A; cAMP-mediated luciferase reporter dose-response of odorant receptor orthologs and paralogs
# T13 construct: gene OR10G3
# Source text: as §1
# [18] = target: T14, h10G4 (Homo sapiens, UniProt Q8NGN3); assay: cell-based; design: species or system Hana3A; cAMP-mediated luciferase reporter dose-response of odorant receptor orthologs and paralogs
# T14 construct: gene OR10G4
# Source text: as §1
# [19] = target: T15, h10G9 (Homo sapiens, UniProt Q8NGN4); assay: cell-based; design: species or system Hana3A; cAMP-mediated luciferase reporter dose-response of odorant receptor orthologs and paralogs
# T15 construct: gene OR10G9
# Source text: as §1
# [20] = target: T16, chimp OR5K1 (Pan troglodytes, UniProt A0A2J8MY22); assay: cAMP-mediated CRE-luciferase reporter dose-response, Hana3A cells; format: cell-based; conditions: agonist; human RTP1S and M3 receptor co-expressed; odor 10 nM to 10 mM
# T16 construct: gene LOC470870; full-length ORF from genomic DNA, N-terminal Rho-tag, Hana3A cells with human RTP1S
# [21] = target: T17, h2A25 (Homo sapiens, UniProt A4D2G3); assay: cell-based; design: species or system Hana3A; cAMP-mediated luciferase reporter dose-response of odorant receptor orthologs and paralogs
# T17 construct: gene OR2A25
# Source text: as §1
# [22] = target: T18, MOR267-13 (Mus musculus, UniProt Q62007); assay: cell-based; design: species or system Hana3A; cAMP-mediated luciferase reporter assay of odorant receptor activation, dose-response, orthologs and paralogs; conditions: ortholog and paralog set
# T18 construct: gene Or10j5
# Description: Figure 2 Response of OR orthologs to 42 chemically diverse odors. (A) Tuning curves of human, chimp and macaque OR2W1 orthologs tested against 42 odors using a cAMP-mediated luciferase assay. Odorants are ordered along the x-axis according to the response elicited from the human OR2W1, with the best ligands closer to the center. Y-axis represents the luciferase response to an odor at 100 µM (n = 3, ± S.E.). Negative values on the y-axis indicate the odor elicited an inhibitory response on OR signaling. See Figure S6 for additional tuning curves. (B) Response of chimp and macaque OR2W1 orthologs (variant responses) plotted against the human OR2W1 response using the data from (A). X-axis and y-axis are response in luciferase assay at 100 µM (n = 3, ± S.E.). The black line represents the unit-slope line. Odor abbreviations in Table S3. Figure 6 Dose-response curves of OR orthologs and paralogs to a given ligand. (A) OR5K1 orthologs and 5 K subfamily to eugenol methyl ether. (B) OR8D1 orthologs and 8D subfamily members to 4,5-dimethyl-3-hydroxy-2,5-dihydrofuran-2-one. […] X-axis is the concentration of a given odor in Log Molar. Y-axis is normalized response (n = 3, ± S.E.M.). Human (h), chimpanzee (c) and rhesus macaque (m), mouse receptors (m+number); para indicates a receptor that is a paralog to the human reference OR. Vector control is Rho-pCI. […]
# [23] = target: T19, h10J1 (Homo sapiens, UniProt P30954); assay: cell-based; design: species or system Hana3A; cAMP-mediated luciferase reporter dose-response of odorant receptor orthologs and paralogs
# T19 construct: gene OR10J1
# Source text: as §1
# [24] = target: T20, h10J5 (Homo sapiens, UniProt Q8NHC4); assay: cell-based; design: species or system Hana3A; cAMP-mediated luciferase reporter dose-response of odorant receptor orthologs and paralogs
# T20 construct: gene OR10J5
# Source text: as §1
# T2 sequence (O76001 whole entry): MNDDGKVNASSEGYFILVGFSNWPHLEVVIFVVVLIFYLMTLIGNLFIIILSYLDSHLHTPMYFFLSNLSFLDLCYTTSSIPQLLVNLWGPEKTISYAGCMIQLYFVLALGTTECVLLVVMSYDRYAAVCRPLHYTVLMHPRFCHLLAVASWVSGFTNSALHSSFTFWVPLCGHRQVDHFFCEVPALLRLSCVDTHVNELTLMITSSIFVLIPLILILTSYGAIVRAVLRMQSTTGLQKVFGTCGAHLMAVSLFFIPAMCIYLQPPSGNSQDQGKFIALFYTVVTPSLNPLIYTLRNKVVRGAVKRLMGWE
# T13 sequence (Q8NGC4 whole entry): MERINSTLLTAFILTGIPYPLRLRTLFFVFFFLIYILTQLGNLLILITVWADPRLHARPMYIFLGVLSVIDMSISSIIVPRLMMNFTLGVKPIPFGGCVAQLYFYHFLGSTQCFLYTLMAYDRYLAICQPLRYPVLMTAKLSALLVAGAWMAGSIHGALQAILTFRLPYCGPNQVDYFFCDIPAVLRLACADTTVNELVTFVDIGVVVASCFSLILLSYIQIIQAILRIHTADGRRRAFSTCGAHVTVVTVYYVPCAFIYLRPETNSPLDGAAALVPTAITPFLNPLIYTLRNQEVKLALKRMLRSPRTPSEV
# T3 sequence (Q9GZK6 whole entry): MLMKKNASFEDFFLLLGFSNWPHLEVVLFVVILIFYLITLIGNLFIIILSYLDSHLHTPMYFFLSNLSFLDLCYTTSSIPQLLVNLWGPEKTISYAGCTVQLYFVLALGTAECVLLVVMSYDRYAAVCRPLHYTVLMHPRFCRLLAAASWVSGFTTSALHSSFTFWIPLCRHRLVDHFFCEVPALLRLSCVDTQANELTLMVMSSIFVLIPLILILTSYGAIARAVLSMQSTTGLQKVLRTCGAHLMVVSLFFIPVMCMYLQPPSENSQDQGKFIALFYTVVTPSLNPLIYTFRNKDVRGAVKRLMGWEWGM
# T5 sequence (A0A2J8LC19 1-312): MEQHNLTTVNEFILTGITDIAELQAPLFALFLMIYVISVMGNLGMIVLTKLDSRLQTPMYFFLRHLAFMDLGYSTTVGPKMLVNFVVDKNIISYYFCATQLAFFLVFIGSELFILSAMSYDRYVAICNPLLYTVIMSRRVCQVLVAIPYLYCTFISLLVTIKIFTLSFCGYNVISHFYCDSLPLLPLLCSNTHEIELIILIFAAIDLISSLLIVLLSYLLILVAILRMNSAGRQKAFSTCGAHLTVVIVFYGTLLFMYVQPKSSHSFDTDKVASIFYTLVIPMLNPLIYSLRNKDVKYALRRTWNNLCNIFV
# T4 sequence (A0A2J8N1S1 1-308): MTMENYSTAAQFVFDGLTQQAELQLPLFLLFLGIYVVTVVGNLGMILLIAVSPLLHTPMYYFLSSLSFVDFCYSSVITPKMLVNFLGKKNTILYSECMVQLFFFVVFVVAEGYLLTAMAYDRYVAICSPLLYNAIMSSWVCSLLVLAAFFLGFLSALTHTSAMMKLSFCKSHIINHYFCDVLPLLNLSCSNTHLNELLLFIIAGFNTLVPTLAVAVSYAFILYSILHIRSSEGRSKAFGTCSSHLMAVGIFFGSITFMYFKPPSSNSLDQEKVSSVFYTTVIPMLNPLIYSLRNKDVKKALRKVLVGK
# Sequence of human OR51L1 (Q8NGJ5 whole entry): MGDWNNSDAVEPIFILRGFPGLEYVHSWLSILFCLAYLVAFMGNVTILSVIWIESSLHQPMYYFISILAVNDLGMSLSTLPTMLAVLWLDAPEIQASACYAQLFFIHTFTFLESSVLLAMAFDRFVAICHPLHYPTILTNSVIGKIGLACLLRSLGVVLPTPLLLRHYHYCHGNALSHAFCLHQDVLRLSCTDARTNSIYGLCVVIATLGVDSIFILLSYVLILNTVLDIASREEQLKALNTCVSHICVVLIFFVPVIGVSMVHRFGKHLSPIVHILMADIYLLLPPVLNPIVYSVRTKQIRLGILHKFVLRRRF
# T16 sequence (A0A2J8MY22 1-308): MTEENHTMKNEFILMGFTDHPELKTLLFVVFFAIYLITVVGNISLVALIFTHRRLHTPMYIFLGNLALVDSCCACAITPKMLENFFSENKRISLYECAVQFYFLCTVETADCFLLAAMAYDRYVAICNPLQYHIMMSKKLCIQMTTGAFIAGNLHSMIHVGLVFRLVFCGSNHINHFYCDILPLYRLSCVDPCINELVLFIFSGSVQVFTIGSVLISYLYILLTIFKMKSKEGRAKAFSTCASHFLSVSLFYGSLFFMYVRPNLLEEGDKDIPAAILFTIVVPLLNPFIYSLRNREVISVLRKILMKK
# T9 sequence (Q8WZ94 whole entry): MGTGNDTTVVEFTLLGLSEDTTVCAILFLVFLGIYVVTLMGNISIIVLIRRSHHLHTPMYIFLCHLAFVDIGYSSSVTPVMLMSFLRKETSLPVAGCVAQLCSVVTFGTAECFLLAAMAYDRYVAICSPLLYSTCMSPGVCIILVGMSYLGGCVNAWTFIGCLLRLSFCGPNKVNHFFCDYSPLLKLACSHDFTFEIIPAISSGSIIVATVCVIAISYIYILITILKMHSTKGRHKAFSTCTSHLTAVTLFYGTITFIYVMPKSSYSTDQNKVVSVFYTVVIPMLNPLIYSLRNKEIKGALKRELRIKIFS
# T18 sequence (Q62007 whole entry): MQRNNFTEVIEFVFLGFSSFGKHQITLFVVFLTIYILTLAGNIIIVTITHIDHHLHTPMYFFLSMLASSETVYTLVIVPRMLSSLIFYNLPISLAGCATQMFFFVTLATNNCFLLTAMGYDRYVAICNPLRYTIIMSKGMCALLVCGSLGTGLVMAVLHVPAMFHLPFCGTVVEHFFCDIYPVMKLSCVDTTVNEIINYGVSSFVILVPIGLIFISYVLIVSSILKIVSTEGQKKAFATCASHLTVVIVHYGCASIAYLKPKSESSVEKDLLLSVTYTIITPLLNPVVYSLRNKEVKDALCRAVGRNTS
# T6 sequence (Q8TCB6 whole entry): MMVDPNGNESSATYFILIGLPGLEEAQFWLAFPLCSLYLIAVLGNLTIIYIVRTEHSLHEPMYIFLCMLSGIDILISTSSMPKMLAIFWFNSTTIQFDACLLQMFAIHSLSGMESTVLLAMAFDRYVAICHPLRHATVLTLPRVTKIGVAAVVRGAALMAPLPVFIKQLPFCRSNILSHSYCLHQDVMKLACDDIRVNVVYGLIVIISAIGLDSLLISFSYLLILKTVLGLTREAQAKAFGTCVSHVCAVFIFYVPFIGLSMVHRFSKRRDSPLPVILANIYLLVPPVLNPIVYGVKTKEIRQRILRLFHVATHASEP
# T17 sequence (A4D2G3 whole entry): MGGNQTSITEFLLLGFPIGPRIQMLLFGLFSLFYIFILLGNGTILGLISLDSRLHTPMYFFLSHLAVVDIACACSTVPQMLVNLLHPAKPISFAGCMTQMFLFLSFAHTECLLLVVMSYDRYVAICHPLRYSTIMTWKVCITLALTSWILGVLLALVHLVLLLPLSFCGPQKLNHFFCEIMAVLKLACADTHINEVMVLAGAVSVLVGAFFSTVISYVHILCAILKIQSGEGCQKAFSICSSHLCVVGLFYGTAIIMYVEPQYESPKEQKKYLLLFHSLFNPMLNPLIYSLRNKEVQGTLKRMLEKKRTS
# T7 sequence (P23275 whole entry): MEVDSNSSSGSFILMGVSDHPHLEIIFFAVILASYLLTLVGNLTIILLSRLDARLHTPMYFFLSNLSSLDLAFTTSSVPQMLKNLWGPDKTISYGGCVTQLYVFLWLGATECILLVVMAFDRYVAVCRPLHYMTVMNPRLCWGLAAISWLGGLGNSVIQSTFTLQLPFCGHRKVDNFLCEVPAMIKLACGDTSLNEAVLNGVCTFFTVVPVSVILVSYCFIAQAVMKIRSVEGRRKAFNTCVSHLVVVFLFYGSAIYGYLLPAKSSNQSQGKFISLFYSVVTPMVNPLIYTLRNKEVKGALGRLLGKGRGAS
# T12 sequence (P0C7T3 whole entry): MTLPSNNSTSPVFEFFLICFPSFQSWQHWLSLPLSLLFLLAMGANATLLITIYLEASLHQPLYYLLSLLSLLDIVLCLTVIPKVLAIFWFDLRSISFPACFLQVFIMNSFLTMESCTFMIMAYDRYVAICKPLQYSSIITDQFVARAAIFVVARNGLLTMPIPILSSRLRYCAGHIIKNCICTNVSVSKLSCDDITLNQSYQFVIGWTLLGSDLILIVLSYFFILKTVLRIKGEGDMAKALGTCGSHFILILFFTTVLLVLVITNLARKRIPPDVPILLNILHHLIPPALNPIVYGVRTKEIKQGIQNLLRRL
# T10 sequence (Q8NGH8 whole entry): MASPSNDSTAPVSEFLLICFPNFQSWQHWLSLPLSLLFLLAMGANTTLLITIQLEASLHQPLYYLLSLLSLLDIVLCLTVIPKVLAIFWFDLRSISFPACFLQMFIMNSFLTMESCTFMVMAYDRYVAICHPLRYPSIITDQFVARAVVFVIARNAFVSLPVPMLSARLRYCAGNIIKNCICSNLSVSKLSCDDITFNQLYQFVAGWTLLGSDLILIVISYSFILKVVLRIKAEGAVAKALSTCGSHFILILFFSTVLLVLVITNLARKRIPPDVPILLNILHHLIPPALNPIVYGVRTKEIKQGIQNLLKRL
# T19 sequence (P30954 whole entry): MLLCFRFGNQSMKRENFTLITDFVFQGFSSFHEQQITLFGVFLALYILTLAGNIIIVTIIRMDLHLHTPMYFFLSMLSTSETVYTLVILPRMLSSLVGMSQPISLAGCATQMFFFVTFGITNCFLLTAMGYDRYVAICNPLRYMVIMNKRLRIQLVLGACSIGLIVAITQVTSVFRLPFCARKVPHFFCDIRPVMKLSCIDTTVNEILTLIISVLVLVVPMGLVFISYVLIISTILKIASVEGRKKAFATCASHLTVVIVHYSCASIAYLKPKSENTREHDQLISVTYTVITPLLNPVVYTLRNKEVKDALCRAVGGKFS
compound,measurement,setting,value
CCCCCCCCO [1-octanol],LogEC50,[1],OR2J2 orthologs and 2J subfamily members to 1-octanol
same,EC50,[2],7.41 µM
same,EC50,[3],1.86 µM
same,EC50,[4],112 µM
"CC1=C(O)C(=O)OC1C (stereo not shown) [4,5-dimethyl-3-hydroxy-2,5-dihydrofuran-2-one]",LogEC50,[5],Human OR8D1 is hyperfunctional to chimp and macaque OR8D1 orthologs
same,EC50,[6],18.6 µM
CC(C)[C@H]1CC[C@H](C)C[C@@H]1O [(+)-menthol],LogEC50,[7],human and chimp OR8K3 orthologs are indistinguishable in their response to (+)-menthol
same,EC50,[8],9.12 µM
C=CCOC(=O)Cc1ccccc1 [allyl phenyl acetate],EC50,[9],9.12 µM
CCCC(=O)O [butyric acid],EC50,[10],57.5 µM
O=c1ccc2ccccc2o1 [coumarin],EC50,[11],44.7 µM
same,EC50,[12],72.4 µM
same,EC50,[13],2.95 µM
CCCCCCCCCC=O [decyl aldehyde],EC50,[14],191 µM
same,EC50,[15],575 µM
same,EC50,[16],162 µM
CCOc1cc(C=O)ccc1O [ethyl vanillin],EC50,[17],41.7 µM
same,EC50,[18],40.7 µM
same,EC50,[19],537 µM
C=CCc1ccc(OC)c(OC)c1 [eugenol methyl ether],LogEC50,[20],human OR5K1 is hyperfunctional to both chimp and macaque OR5K1 orthologs
C=CCc1ccc(O)c(OC)c1 [eugenol],EC50,[17],132 µM
CC(=O)OC/C=C(\C)CCC=C(C)C [geranyl acetate],EC50,[2],42.7 µM
same,EC50,[3],162 µM
same,EC50,[4],479 µM
same,EC50,[21],9.55 µM
CC(C)(O)CCCC1=CCC(C=O)CC1 (stereo not shown) [lyral],EC50,[22],20.9 µM
same,EC50,[23],724 µM
same,EC50,[24],47.9 µM
